# Where a name gives a salt, the structure may show the parent alone.
# How the values were obtained:
# erbB2 [1] = molecular target: T1, erbB2 (Homo sapiens, UniProt P04626); assay: Protein tyrosine kinase phosphorylation assay, Test (a): erbB2; format: biochemical; parameters: Recombinant intracellular fragments of EGFR and erbB2; made in house; host or cells: baculovirus/Sf21 insect cells; details: inhibition of phosphorylation of a tyrosine containing polypeptide substrate by erbB2 kinase; ATP at Km
# Procedure: (§1) This test measures the ability of a test compound to inhibit the phosphorylation of a tyrosine containing polypeptide substrate by an enzyme selected from the EGFR kinase and erbB2 kinase.
# (§2) Recombinant intracellular fragments of EGFR and erbB2 (accession numbers X00588 and X03363 respectively) were cloned and expressed in the baculovirus/Sf21 system. Lysates were prepared from these cells by treatment with ice-cold lysis buffer (20 mM N-2-hydroxyethylpiperizine-N′-2-ethanesulfonic acid (HEPES) pH 7.5, 150 mM NaCl, 10% glycerol, 1% Triton X-100, 1.5 mM MgCl2, 1 mM ethylene glycol-bis(β-aminoethyl ether) N′,N′,N′,N′-tetraacetic acid (EGTA), plus protease inhibitors and then cleared by centrifugation.
# (§3) Constitutive kinase activity of these recombinant proteins was determined by their ability to phosphorylate a synthetic peptide (made up of a random co-polymer of Glutamic Acid, Alanine and Tyrosine in the ratio of 6:3:1). Specifically, Maxisorb™ 96-well immunoplates were coated with synthetic peptide (0.2 μg of peptide in a 200 μl phosphate buffered saline (PBS) solution and incubated at 4° C. overnight). Plates were washed in 50 mM HEPES pH 7.4 at room temperature to remove any excess unbound synthetic peptide. […] Reactions were terminated by the removal of the liquid components of the assay followed by washing of the plates with PBS-T (phosphate buffered saline with 0.5% Tween 20).
# (§4) The immobilised phospho-peptide product of the reaction was detected by immunological methods. Firstly, plates were incubated for 90 minutes at room temperature with anti-phosphotyrosine primary antibodies that were raised in the mouse (4G10 from Upstate Biotechnology). Following extensive washing, plates were treated with Horseradish Peroxidase (HRP) conjugated sheep anti-mouse secondary antibody (NXA931 from Amersham) for 60 minutes at room temperature. After further washing, HRP activity in each well of the plate was measured colorimetrically using 22′-Azino-di-[3-ethylbenzthiazoline sulfonate (6)] diammonium salt crystals (ABTS™ from Roche) as a substrate.
# (§5) Kinase inhibition for a given compound was expressed as an IC50 value. […] The range of phosphorylation was calculated from the positive (vehicle plus ATP) and negative (vehicle minus ATP) control values.
# Target sequence in this assay (P04626 676-1255 limits assumed): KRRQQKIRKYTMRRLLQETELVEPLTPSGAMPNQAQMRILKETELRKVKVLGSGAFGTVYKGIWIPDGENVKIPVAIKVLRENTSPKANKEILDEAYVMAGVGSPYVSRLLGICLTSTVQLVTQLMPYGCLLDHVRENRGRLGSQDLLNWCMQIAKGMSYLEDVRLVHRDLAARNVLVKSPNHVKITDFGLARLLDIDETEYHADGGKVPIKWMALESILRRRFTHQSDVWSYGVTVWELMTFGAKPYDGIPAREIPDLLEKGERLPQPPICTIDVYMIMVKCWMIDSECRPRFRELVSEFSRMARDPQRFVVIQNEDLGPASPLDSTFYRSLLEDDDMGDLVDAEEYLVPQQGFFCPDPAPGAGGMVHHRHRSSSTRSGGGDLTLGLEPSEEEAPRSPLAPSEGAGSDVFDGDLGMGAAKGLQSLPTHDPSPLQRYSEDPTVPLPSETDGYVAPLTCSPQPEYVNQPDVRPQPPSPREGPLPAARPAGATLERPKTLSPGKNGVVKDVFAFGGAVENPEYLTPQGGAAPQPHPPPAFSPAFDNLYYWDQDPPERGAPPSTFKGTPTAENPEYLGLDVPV
# EGFR kinase = molecular target: T2, EGFR kinase (Homo sapiens, UniProt P00533); assay: Protein tyrosine kinase phosphorylation assay, Test (a): EGFR; format: biochemical; details: inhibition of phosphorylation of a tyrosine containing polypeptide substrate by EGFR kinase; ATP at Km
# T2 construct: Recombinant intracellular fragments of EGFR and erbB2; made in house; host or cells: baculovirus/Sf21 insect cells
# T2 sequence (P00533 669-1210 limits assumed): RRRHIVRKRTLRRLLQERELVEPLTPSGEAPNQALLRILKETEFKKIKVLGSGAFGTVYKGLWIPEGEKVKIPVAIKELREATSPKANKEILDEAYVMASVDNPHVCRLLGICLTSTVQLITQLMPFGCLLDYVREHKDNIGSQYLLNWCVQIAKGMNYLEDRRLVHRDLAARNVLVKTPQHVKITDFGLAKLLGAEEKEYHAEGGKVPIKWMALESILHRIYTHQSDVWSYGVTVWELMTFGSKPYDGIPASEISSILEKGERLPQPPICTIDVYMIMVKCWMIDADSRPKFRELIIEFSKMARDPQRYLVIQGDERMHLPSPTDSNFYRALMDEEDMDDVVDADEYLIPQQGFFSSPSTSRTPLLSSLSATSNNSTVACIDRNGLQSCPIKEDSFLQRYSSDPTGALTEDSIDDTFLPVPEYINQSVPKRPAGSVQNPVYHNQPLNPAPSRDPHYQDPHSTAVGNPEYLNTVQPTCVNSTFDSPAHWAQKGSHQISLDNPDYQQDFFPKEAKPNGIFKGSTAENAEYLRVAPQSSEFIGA
# Procedure: as §1, §2, §3, §4, §5
# erbB2 [2] = molecular target: T1, erbB2; assay: Clone 24 phospho-erbB2 cell assay, Test (e); format: cell-based; parameters: a cell line that overexpresses full length wild type erbB2 protein; expressed in transfected cells; host or cells: MCF7 (breast carcinoma) derived Clone 24 cells; details: inhibition of phosphorylation of erbB2 in a MCF7 (breast carcinoma) derived cell line (Clone 24)
# Procedure: The cells were resuspended in Growth Medium.
# 3 days later, Growth Medium was removed from the wells and replaced with 100 ul Assay Medium (phenol red free DM , 2 mM glutamine, 1.2 mg/ml G418) either with or without erbB inhibitor compound. Plates were returned to the incubator for 4 hours and then 20 μl of 20% formaldehyde solution in PBS was added to each well and the plate was left at room temperature for 30 minutes. This fixative solution was removed with a multichannel pipette, 100 μl of PBS was added to each well and then removed with a multichannel pipette and then 50 μl PBS was added to each well. Plates were then sealed and stored for up to 2 weeks at 4° C.
# Immunostaining was performed at room temperature. Wells were washed once with 200 μl PBS/Tween 20 (made by adding 1 sachet of PBS/Tween dry powder (Sigma, No. P3563) to 1 L of double distilled H2O) using a plate washer then 200 μl Blocking Solution (5% Marvel dried skimmed milk (Nestle) in PBS/Tween 20) was added and incubated for 10 minutes. Blocking Solution was removed using a plate washer and 200 μl of 0.5% Triton X-100/PBS was added to permeabalise the cells. After 10 minutes, the plate was washed with 200μl PBS/Tween 20 and then 200 μl Blocking Solution was added once again and incubated for 15 minutes. […] Then this primary antibody solution was removed from the wells using a plate washer followed by two 200 μl PBS/Tween 20 washes using a plate washer. […] From now onwards, wherever possible, plates were protected from light exposure, at this stage by sealing with black backing tape. The plates were incubated for 45 minutes and then the secondary antibody solution was removed from the wells followed by two 200 ul PBS/Tween 20 washes using a plate washer. Then 100 μl PBS was added to each plate, incubated for 10 minutes and then removed using a plate washer. Then a further 100 μl PBS was added to each plate and then, without prolonged incubation, removed using a plate washer. Then 50 μl of PBS was added to each well and plates were resealed with black backing tape and stored for up to 2 days at 4° C. before analysis.
# The Fluorescence signal is each well was measured using an Acumen Explorer Instrument (Acumen Bioscience Ltd.), a plate reader that can be used to rapidly quantitate features of images generated by laser-scanning. The instrument was set to measure the number of fluorescent objects above a pre-set threshold value and this provided a measure of the phosphorylation status of erbB2 protein. Fluorescence dose response data obtained with each compound was exported into a suitable software package (such as Origin) to perform curve fitting analysis. Inhibition of erbB2 phosphorylation was expressed as an IC50 value.
# Target sequence in this assay (P04626 23-1255): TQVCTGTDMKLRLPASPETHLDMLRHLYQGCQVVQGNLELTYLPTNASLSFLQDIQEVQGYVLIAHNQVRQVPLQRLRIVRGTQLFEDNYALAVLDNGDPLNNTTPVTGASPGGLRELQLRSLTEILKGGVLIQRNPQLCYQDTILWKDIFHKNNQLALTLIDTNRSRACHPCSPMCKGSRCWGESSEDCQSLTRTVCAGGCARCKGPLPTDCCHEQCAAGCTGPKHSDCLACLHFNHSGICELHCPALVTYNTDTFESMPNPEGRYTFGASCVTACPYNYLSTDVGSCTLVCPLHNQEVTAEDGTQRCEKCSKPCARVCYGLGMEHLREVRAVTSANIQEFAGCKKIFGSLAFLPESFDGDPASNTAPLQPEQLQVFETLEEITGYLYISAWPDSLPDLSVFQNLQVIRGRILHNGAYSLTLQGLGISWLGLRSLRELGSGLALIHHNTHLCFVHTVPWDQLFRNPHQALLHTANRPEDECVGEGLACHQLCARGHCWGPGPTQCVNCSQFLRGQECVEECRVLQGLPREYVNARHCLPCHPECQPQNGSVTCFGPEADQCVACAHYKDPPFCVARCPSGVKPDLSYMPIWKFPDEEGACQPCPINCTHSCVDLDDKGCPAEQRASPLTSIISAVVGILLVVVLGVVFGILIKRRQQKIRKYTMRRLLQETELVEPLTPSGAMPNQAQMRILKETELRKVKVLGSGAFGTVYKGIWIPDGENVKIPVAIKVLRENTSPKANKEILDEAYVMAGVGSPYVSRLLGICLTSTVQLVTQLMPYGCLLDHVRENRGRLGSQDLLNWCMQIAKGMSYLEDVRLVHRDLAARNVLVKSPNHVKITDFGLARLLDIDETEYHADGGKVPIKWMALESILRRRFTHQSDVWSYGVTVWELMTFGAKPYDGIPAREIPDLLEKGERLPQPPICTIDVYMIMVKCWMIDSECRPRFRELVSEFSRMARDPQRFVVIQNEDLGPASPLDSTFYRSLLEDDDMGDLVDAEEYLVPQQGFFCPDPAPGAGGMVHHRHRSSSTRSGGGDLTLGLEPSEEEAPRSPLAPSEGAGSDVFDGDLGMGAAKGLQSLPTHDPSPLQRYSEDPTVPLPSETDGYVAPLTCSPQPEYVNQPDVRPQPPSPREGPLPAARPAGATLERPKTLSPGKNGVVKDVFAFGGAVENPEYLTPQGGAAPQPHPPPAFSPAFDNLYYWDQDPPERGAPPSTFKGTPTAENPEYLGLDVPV
SMILES,IC50 (erbB2 [1]) [µM],IC50 (EGFR kinase) [µM],IC50 (erbB2 [2]) [µM]
"COc1cc(Nc2ncnc3cccc(OCCN(C)C)c23)ccc1OCc1cc(C)on1 [Example 37, 5-[2-(Dimethylamino)ethoxy]-N-{3-methoxy-4-[(5-methylisoxazol-3-yl)methoxy]phenyl}quinazolin-4-amine]",0.017,8.4,0.003
"C[C@H](CN(C)C)Oc1cccc2ncnc(Nc3ccc(Sc4nccn4C)c(Cl)c3)c12 [Example 53, N-{3-Chloro-4-[(1-methyl-1H-imidazol-2-yl)thio]phenyl}-5-[(1R)-2-(dimethylamino)-1-methylethoxy]quinazolin-4-amine dihydrochloride]",0.005,0.064,0.001
"CN(C)CC(C)(C)Oc1cccc2ncnc(Nc3ccc(OCc4ccccn4)c(Cl)c3)c12 [Example 56, N-[3-Chloro-4-(pyridin-2-ylmethoxy)phenyl]-5-[2-(dimethylamino)-1,1-dimethylethoxy]quinazolin-4-amine]",0.002,0.49,0.002

# The remaining lines, values ahead:
IC50 (erbB2 [1]) [µM],IC50 (EGFR kinase) [µM],IC50 (erbB2 [2]) [µM],SMILES
0.002,0.068,0.001,C[C@H](CN(C)C)Oc1cccc2ncnc(Nc3ccc(OCc4cscn4)c(Cl)c3)c12 [Example 23]
0.002,4.3,0.003,"COc1cc(Nc2ncnc3cccc(OC(C)CN(C)C)c23)ccc1Oc1ccccc1 (stereo not drawn) [Example 54, 5-[2-(Dimethylamino)-1-methylethoxy]-N-(3-methoxy-4-phenoxyphenyl)quinazolin-4-amine]"

# Reference: patent US20070149546A1, “4-Anilino-quinazoline derivatives as antiproliferative agents” (priority 2003, published 2007)
